{"source": "patent EP3760204A1", "about": "“MEDICAMENT FOR PREVENTION OR TREATMENT OF HUNTINGTON'S DISEASE” (Medizinische Universität Graz, priority 2019, dated 2021)", "key": {"[1]": {"test_system": "HepG2 cells", "assay": "Autophagic flux assay (LC3 II Western blot, with or without chloroquine) in HepG2 cells", "assay_type": "cell-based, human", "conditions": "50µM hyperforin vs ethanol vehicle, Figure 6A", "method": "(§1) Western blot: Protein lysate was generated by homogenization (Magnalyzer, Roche) of tissue or cell pellet in homogenization buffer with protease and phosphatase inhibitors (Halt tablets, Invitrogen). After homogenization, lysates were sonicated 2x for 10\" each. Lysates were then centrifuged for 10 min at 4°C and the supernatant was subjected to BCA protein estimation (Thermo Fisher). Equal amounts of lysate were loaded to self-made acrylamide gels. After separation, the protein was transferred to a PVDF membrane with semi-dry transfer."}, "[2]": {"test_system": "alpha-1-antitrypsin", "assay": "Pathological alpha-1-antitrypsin (Z-allele) accumulation in transfected HeLa cells", "assay_type": "cell-based, human", "conditions": "HeLa cells transfected with PXR/RXR and Z-allele of alpha-1-antitrypsin, 50µM, 24h; Figure 10", "method": "as §1"}, "[3]": {"test_system": "HepG2 cells", "assay": "pGFP-RFP-LC3 autophagic flux assay in transfected HepG2 cells", "conditions": "fed condition, 50µM, Figures 3C, 6C"}, "[4]": {"test_system": "TFEB", "assay": "LC3 II induction after TFEB knockdown (siTFEB) in HepG2 cells", "assay_type": "cell-based, human", "conditions": "50µM, +/- chloroquine, Figure 9", "method": "as §1"}}}
{"substance": "hyperforin", "values": [{"measurement": "LC3 II protein", "setting": "[1]", "value": "induces"}, {"measurement": "pathological A1AT accumulation", "setting": "[2]", "value": "robustly decreases"}, {"measurement": "autophagic flux (GFP-RFP-LC3 dots)", "setting": "[3]", "value": "induced autophagic flux"}, {"measurement": "LC3 II in the presence of TFEB", "setting": "[4]; non-targeting control (NT) HepG2 cells", "value": "induces"}, {"measurement": "LC3 II induction in siTFEB cells", "setting": "[4]; siTFEB HepG2 cells", "value": "blunted"}]}
